Data set [1] concerns ICR mice, acetic acid writhing pain model. In words: mice acetic acid writhing pain model. It counts as in vivo, mouse. The conditions noted are these: for number of appearance of writhing reaction: within 30 min, saline group 49 times. The protocol:
Male ICR mice, weighed 22-25 g, were fasted but allowed to drink water freely for 2 h before administration. All ICR mice were weighed and grouped randomly, and the number of animals in each group was >10. […] The test compound was IC-1 (the compound prepared in Example 9), and the administration dosages were 5 mg/kg and 10 mg/kg. […] When concave abdomen, stretched trunk and hind claw, and high buttocks appeared, one number point was recorded. […] After administration, the fewer visceral pains in the mice were, the stronger the analgesic effect of the compound was.
For orientation: Writhing tests count abdominal constrictions after an irritant is injected.

For data set [2], the system named is C57BL/6 mice, formalin pain model. Kind of data set: mice formalin pain model, dose response (Example 50). It counts as in vivo, mouse. The conditions noted are these: for Licking time: Phase II, 10-60 min. The method, then: 100 male C57BL/6 mice (9-week aged), were randomly divided into 10 groups to evaluate analgesic activity of two compounds in the mice formalin pain model, and each group had 10 mice. […] Before the start of experiment, the mice were allowed to adapt experimental environment for 72 h with free feeding and drinking water. The test drug was administrated intraperitoneally, and the dosage was as follows:
After administration, the mice were placed in a transparent, ventilated plexiglass cylinder, and 1 h later, 20 μl of 4% formalin solution was injected into the left hind plantar of mice in each group by micro-injector, and claw pain response in mice was recorded in real time by a mini-camera. The time length of licking left claw was used as an indicator of pain response, licking time in 0-10 min (phase I) and 10-60 min (phase II) was observed and recorded, and the statistical analysis was conducted. The half effective dose (ED50) of three compounds was calculated: ED50 referred to the dose of the drug that decreased licking time by half as compared with the blank control group. The smaller the ED50 value was, the lower the effective analgesic dose of the compound was and the stronger the analgesic effect was.

The target of the next data set is T1, human TRPA1 channel (Homo sapiens, UniProt O75762).
T1 construct: expressed in transfected cells; host or cells: HEK293
Kind of data set: manual patch clamp detection of TRPA1 inhibitory activity. The conditions noted are these: for IC50: HEK293 stably expressing human TRPA1, 100 μM AITC, +100 mV. It counts as cell-based. The method, then: The HEK293 cell line stably expressing human TRPA1 channel was placed in T75 culture flask with DMEM medium containing 15 μg/mL Blasticidin S HCl, 200 μg/mL Hygromycin B and 10% FBS, and cultured in incubator at 37° C. and 5% CO2. When the cell density reached about 80%, the culture medium was removed, the residue was rinsed with phosphate buffered saline (PBS) without calcium and magnesium. 2 mL of trypsin was added to digest for 2 minutes, and 8 mL of culture medium was added to terminate the digestion. The cells were collected to 15 mL centrifuge tube and centrifuged at 800 rpm for 3 min. After the supernatant was removed, an appropriate volume of extracellular fluid was added to re-suspend the cells.
In manual patch clamp detection, HEKA system (Patch Master software) was used together with EPC-10 amplifier to record the whole cell current of TRPA1 stably transfected cell line at room temperature. intracellular fluid formulation for whole cell recording was as follows (mM): 140 CsCl, 10 HEPES, 5 EGTA, 0.1 CaCl2, 1 MgCl2 (pH 7.2, osmotic pressure 295-300 mOsm); Ca^2+-free extracellular fluid formulation for recording was as follows (mM): 140 NaCl, 5 KCl, 0.5 EGTA, 1 MgCl2, 10 Glucose, 10 HEPES (pH 7.4, osmotic pressure 300-310 mOsm). Glass microelectrode resistance used for patch clamp recording was 2-4 MΩ, the sampling frequency was 10 kHz, the filter frequency was 2.9 kHz, the cell clamp was 0 mV, and the voltage stimulation command (channel protocol) was a linear voltage from −100 mV to +100 mV for 300 ms, then restored to 0 mV clamping potential. The recording was performed every 2 s. The hTRPA1 current was induced by 100 μM AITC. To ensure the accuracy of current recording, the series resistance was used for 60% compensation during recording.
Data recording and current amplitude measurement export were completed by Patch Master software. Cells with sealing impedance lower than 500 MΩ, w were not included in the statistics. The original current data were corrected by software for leakage reduction, and the hTRPA1 current amplitude was measured at +100 mV. The compound dose-effect curve and IC50 were fitted and calculated by GraphPad Prism 5.02 (GraphPad Software, San Diego, Calif.).
On the technique in general: In patch-clamp work, channel activity is measured electrically.

A short description of data set [3]: Pharmacokinetic test in rat. It counts as in vivo. The conditions noted are these: for bioavailability: oral, calculated on AUC(0-∞); for half-life: read-out: T½ (converted). The protocol:
A certain amount of sample was weighed and dissolved in deionized water to prepare 1 mg/mL of solution. Male SD rats were used as test animals. The dose of single intravenous (IV) injection was 2 mg/kg, and the dose of oral (PO) administration was 10 mg/kg. Each group had three rats. The rats in oral group were fasted for 10-14 hours before administration, and were fed 4 hours after administration. Animal blood collection time points were as follows: before administration, and 5 min, 15 min, 30 min, 1 h, 2 h, 4 h, 6 h, 8 h, and 24 h after administration for intravenous administration; before administration, and 15 min, 30 min, 1 h, 2 h, 4 h, 6 h, 8 h and 24 h after administration for oral administration. About 0.25 mL of blood was collected via the jugular vein from each animal, and heparin sodium was used for anticoagulation. After collecting the blood samples, the blood samples were placed on ice and centrifuged to separate the plasma (centrifugation conditions: 8000 rpm, 6 min, 4° C.). The collected plasma was stored at −80° C. before analysis. 50 μL of plasma sample was taken into 1.5 mL of centrifuge tube, 250 μL of internal standard solution was added, and the same volume of methanol rather than internal standard solution was added in the blank group. The mixture was vortexed and mixed, centrifuged at 14,000 rpm for 5 min, 200 μL of supernatant was taken into 96-well sample plate, and the LC-MS/MS was used for sample analysis. In the linear regression analysis, the peak area was taken as the y-axis and the drug concentration was taken as the x-axis. The linear relationship between the peak area ratio and the concentration was expressed by the correlation coefficient (R) obtained from the regression equation of the compound. According to the blood concentration data of the drug, the pharmacokinetic calculation software WinNonlin7.0 non-compartmental model was used to calculate the pharmacokinetic parameters of the test drug.
Internal standard working solution: a certain amount of tolbutamide internal standard stock solution with a concentration of 490,000 ng/mL was taken into a volumetric flask with a certain volume, diluted to a desired volume with methanol and mixed well to obtain the internal standard working solution with a concentration of 200 ng/mL.

Like-named read-outs stand apart in the source and are kept apart here.

T1 sequence (O75762 whole entry): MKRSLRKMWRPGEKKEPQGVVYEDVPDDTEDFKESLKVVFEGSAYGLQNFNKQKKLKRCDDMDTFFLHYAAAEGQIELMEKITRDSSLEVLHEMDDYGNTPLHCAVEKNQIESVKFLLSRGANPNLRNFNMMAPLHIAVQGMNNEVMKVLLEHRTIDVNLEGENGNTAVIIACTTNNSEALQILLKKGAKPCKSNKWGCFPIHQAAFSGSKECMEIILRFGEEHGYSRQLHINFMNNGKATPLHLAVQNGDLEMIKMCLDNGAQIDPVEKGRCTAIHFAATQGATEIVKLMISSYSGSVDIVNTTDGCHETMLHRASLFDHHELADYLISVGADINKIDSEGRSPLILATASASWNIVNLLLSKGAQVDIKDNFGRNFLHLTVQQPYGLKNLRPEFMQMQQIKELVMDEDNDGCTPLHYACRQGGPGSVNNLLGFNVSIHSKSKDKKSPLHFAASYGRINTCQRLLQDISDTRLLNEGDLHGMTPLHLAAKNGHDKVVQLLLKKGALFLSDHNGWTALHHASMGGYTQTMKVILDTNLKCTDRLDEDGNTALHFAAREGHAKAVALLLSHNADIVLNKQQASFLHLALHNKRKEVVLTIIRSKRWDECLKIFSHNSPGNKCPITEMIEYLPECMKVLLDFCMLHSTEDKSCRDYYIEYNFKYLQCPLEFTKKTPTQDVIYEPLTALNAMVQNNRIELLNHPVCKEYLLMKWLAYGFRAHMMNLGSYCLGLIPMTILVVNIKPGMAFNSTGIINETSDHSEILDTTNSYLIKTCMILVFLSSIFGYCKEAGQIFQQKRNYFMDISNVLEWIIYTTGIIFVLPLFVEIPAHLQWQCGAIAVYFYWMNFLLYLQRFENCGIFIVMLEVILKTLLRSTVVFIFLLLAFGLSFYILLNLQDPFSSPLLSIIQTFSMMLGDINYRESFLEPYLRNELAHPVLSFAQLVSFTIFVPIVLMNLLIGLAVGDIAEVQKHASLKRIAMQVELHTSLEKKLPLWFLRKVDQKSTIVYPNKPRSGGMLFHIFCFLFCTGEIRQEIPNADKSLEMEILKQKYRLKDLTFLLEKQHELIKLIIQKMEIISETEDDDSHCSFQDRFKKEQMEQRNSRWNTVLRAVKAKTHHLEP

Broadly, the IC50 is the concentration at which inhibition is half-maximal. A low value points to greater potency. The term AUC(0-inf) denotes total exposure, with the tail of the curve extrapolated. A high value points to more exposure. By Cmax is commonly meant the maximum level reached in the sampled fluid or tissue. What is called Tmax is the time at which the peak concentration occurs. In the case of `CNCC[C@H](Oc1cccc2ccoc12)c1cccs1` [Compound IC-1, (S)-3-(benzofuran-7-yloxy)-N-methyl-3-(thiophen-2-yl)propyl-1-amine], in data set [1] (5 mg/kg by gavage), the “writhing number lower than in the saline control group” value is on record as 50% and the “number of appearance of writhing reaction” value was found to be 20 times. Also, in data set [1] (10 mg/kg by gavage), the “number of appearance of writhing reaction” value was 17 times. Further, in data set [1] (acetic acid writhing, gavage), the half effective dose entry is on record as “less than 5 mg/kg”. Moreover, the “decrease of licking time as compared with blank Vehicle” value in data set [2] (1 mg/kg, phase II (10-60 min)) is given as “more than 50%”. Further, on human TRPA1 channel, 430 nM corresponded to half-maximal inhibition (IC50). The “ratio of IC50 of S configuration of duloxetine to IC50 of the compound, manual patch clamp” value on human TRPA1 channel (manual patch clamp) is on record as 10.14. Further, the bioavailability in data set [3] (male, SD, plasma, 10 mg/kg) was 179%. In data set [3] (male, SD, plasma, IV 2 mg/kg), the AUC(0-inf) amounted to 449 ng·h/mL, the Cmax came out at 170 ng/mL and the half-life is 2.97 h. The Tmax in data set [3] (male, SD, plasma, IV 2 mg/kg, read-out: Tmax) was 0.083 h. Further, in data set [3] (male, SD, plasma, PO 10 mg/kg), the AUC(0-inf) came out at 4020 ng·h/mL, the Cmax was 266 ng/mL and the half-life was 5.69 h. Moreover, in data set [3] (male, SD, plasma, PO 10 mg/kg, read-out: Tmax), the Tmax turned out to be 3 h.
One may read the ED50 as the midpoint of the dose-response relation. A high value points to a need for a large dose. With `CNCC[C@H](Oc1cccc2ccccc12)c1cccs1` [Duloxetine (S configuration), Duloxetine], the “number of appearance of writhing reaction” value in data set [1] (10 mg/kg by gavage) is listed as 27 times; in data set [1] (20 mg/kg by gavage) it was 21 times. Besides, the “Licking time” value is listed as 259.97 ± 64.44 s in data set [2] (1 mg/kg intraperitoneal), 230.49 ± 41.31 s in data set [2] (5 mg/kg intraperitoneal), 162.83 ± 36.27 s in data set [2] (10 mg/kg intraperitoneal) and 72.27 ± 17.29 s in data set [2] (20 mg/kg intraperitoneal). In addition, the ED50 in data set [2] (Mus musculus, ip, intraperitoneal, phase II (10-60 min), dose that decreased licking time by half) is 8 mg/kg. On human TRPA1 channel, this molecule had an IC50 of 4360 nM. Further, the “Tmax” value in data set [3] (PO 10 mg/kg, 10 mg/kg) was 0.833 h; in data set [3] (male, SD, plasma, iv, 2 mg/kg, IV 2 mg/kg, read-out: Tmax), 0.083 h; in data set [3] (male, SD, plasma, po, 10 mg/kg, PO 10 mg/kg, read-out: Tmax) it was 0.83 h. Besides, the bioavailability in data set [3] (male, SD, plasma, 10 mg/kg) is 9.9%. For the same molecule, the AUC(0-inf) was found to be 449 ng·h/mL in data set [3] (male, SD, plasma, IV 2 mg/kg) and 222 ng·h/mL in data set [3] (male, SD, plasma, PO 10 mg/kg). For the same molecule, the Cmax is 177 ng/mL in data set [3] (male, SD, plasma, IV 2 mg/kg) and 76 ng/mL in data set [3] (male, SD, plasma, PO 10 mg/kg). Moreover, the half-life was 1.77 h in data set [3] (male, SD, plasma, IV 2 mg/kg) and 1.81 h in data set [3] (male, SD, plasma, PO 10 mg/kg).

The values above are taken from patent publication US20220119375A1, “3-ARYLOXY-3-ARYL-PROPYLAMINE COMPOUND AND USES THEREOF” (Zhangzhou Pien Tze Huang Pharmaceutical Co., Ltd., priority 2018, published 2022).
